For assay [1], the target named is T1, sGC α1/β1 heterodimer stably expressed in CHO-K1 cells (CHO-K1/sGC) (Homo sapiens, UniProt Q02108+Q02153).
T1 construct: expressed in transfected cells
T1 sequence (Q02108 1-690): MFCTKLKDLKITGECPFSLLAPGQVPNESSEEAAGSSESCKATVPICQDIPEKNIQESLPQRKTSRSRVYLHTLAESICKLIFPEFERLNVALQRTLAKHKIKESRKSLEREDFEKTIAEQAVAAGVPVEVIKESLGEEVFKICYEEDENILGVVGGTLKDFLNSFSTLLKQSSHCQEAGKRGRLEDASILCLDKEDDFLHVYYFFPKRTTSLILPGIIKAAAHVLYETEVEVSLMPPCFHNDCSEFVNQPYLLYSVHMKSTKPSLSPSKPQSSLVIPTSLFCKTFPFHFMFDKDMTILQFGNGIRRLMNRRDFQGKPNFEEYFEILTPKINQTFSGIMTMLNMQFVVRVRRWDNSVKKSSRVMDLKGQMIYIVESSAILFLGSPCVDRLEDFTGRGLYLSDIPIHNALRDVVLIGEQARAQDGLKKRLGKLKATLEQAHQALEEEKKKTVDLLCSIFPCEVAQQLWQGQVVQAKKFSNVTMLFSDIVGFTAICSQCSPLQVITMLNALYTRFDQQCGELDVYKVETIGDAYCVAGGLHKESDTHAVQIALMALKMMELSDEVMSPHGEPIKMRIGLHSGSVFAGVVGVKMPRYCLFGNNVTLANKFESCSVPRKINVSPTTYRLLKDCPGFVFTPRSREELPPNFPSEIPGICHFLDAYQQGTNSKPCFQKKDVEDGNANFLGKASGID
T1 sequence (Q02153 1-619): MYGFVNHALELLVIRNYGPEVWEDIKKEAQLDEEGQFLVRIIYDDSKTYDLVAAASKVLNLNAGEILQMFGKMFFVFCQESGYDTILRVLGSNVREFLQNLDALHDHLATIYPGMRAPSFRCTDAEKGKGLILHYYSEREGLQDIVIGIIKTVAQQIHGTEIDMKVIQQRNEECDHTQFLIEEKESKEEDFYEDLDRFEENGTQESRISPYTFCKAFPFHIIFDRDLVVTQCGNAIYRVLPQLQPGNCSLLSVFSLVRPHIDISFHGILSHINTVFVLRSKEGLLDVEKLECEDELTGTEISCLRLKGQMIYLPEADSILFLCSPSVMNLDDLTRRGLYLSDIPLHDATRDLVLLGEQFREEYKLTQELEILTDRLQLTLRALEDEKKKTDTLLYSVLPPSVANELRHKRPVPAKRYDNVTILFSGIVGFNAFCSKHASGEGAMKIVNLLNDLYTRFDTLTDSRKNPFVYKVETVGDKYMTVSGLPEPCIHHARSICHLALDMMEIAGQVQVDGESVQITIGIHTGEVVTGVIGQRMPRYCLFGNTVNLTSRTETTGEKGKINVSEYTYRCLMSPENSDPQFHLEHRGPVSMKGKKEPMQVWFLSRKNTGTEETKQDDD
The assay is described as follows: Cell-based sGC Functional Assay (CASA Assay). As to conditions: for Emax: CHO-K1, activation as percentage of maximum cGMP production of Compound A (set to 100%), read-out: % Act.; for EC50: inflection point of cGMP generation in CHO-K1/sGC cells, 4P fit, 1 hr at 37° C., read-out: IP. In a few lines: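 CHO-K1 cells stably expressing human sGC α1/β1 were incubated with compound for 1 h at 37 °C in buffer with 0.5 mM IBMX and 2.5% DMSO, with or without 1 μM DETA-NO. Intracellular cGMP was read by HTRF and expressed as percentage of maximal activation by reference activator Compound A. Values came from a 4-parameter fit.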

Assay [2] relates to Spontaneously hypertensive rats (SHR). The assay can be described thus: Acute Efficacy in Spontaneously Hypertensive Rats (SHR). The class given is in vivo, rat. To be noted: single oral dose. An excerpt: Spontaneously hypertensive rats (SHR, male, Charles River) were implanted with DSI TA11PA-C40 telemetry device (Data Sciences, Inc., St. Paul, Minn.) under isoflurane or ketamine/metomidine anesthesia. The telemetry unit catheter was inserted into the descending aorta via the femoral artery and the telemetry device was implanted subcutaneously in the left flank area. Animals were allowed to recover from surgery for 14 days before the start of any studies. Blood pressure, heart rate, and activity signals from conscious, freely moving rats were recorded continuously for 30 seconds every 10 min. On the day prior to administration of compound, a single oral dose of vehicle (10% transcutol/20% Cremophor/70% water) was administered to all animals to establish baseline control data. The blood pressure lowering efficacy of compound (PO) or vehicle was evaluated following a single oral gavage. Data were collected as hourly averages, and changes in blood pressure were calculated by subtracting control baseline data on an hourly basis. Animals were maintained on normal diet with a 12 hour light-dark cycle.
Maximum peak decreases of systolic blood pressure (SBP) in SHR at a particular P.O. dose (mpk milligrams per kilogram) for the following representative compounds are provided in Table 9. Category A=SBP in SHRs <15 mmHg; Category B=SBP in SHRs 15-25 mmHg; Category C=SBP in SHRs >25 mmHg

Regarding `[2H]C([2H])([2H])n1ncc2c(-c3nc(N)c4c(n3)NC(=O)C4(c3nnc(C4CC4)o3)C3CC3)nc(CCC(F)(F)C(F)(F)F)nc21` (stereo not shown) [Example 38, 4-Amino-5-cyclopropyl-5-(5-cyclopropyl-1,3,4-oxadiazol-2-yl)-2-(1-(methyl-d3)-6-(3,3,4,4,4-pentafluorobutyl)-1H-pyrazolo[3,4-d]pyrimidin-4-yl)-5,7-dihydro-6H-pyrrolo[2,3-d]pyrimidin-6-one], in assay [1], the Emax was 165% and the EC50 was determined as 265 nM. In assay [2] (P.O. 1 mpk), the “Category: maximum peak decrease of systolic blood pressure (SBP) in SHR” value (from here on “Category: maximum peak decrease”) is listed as “C (Category C=SBP in SHRs >25 mmHg)”.

Turning to `[2H]C([2H])([2H])n1ncc2c(-c3nc(N)c4c(n3)NC(=O)C4(C)c3noc(C)n3)nc(CCC(F)(F)C(F)(F)F)nc21` (stereo not shown) [Example 19, 4-Amino-5-methyl-5-(5-methyl-1,2,4-oxadiazol-3-yl)-2-(1-(methyl-d3)-6-(3,3,4,4,4-pentafluorobutyl)-1H-pyrazolo[3,4-d]pyrimidin-4-yl)-5,7-dihydro-6H-pyrrolo[2,3-d]pyrimidin-6-one], in assay [1], the Emax was 157% and the EC50 was determined as 225 nM. Further, the “Category: maximum peak decrease” value in assay [2] (P.O. 1 mpk) is recorded as “C (Category C=SBP in SHRs >25 mmHg)”.

Turning to `Cn1ncc2c(-c3nc(N)c4c(n3)NC(=O)C4(C)n3cnnn3)nc(CCC(F)(F)C(F)(F)F)nc21` (single isomer, unassigned) [Example 84, 4-Amino-5-methyl-2-(1-methyl-6-(3,3,4,4,4-pentafluorobutyl)-1H-pyrazolo[3,4-d]pyrimidin-4-yl)-5-(1H-tetrazol-1-yl)-5,7-dihydro-6H-pyrrolo[2,3-d]pyrimidin-6-one], in assay [1], the Emax is 111% and the EC50 was 365 nM. Besides, the “Category: maximum peak decrease” value in assay [2] (P.O. 1 mpk) is reported as “A (Category A=SBP in SHRs <15 mmHg)”.

As to `Cn1ncc2c(-c3nc(N)c4c(n3)NC(=O)C4(C)c3ccc(F)cn3)nc(CCCC(F)(F)F)nc21` (stereo not shown) [Example 4, 4-Amino-5-(5-fluoropyridin-2-yl)-5-methyl-2-(1-methyl-6-(4,4,4-trifluorobutyl)-1H-pyrazolo[3,4-d]pyrimidin-4-yl)-5H-pyrrolo[2,3-d]pyrimidin-6(7H)-one], in assay [1], the Emax worked out at 115% and the EC50 is 54 nM. The “Category: maximum peak decrease” value in assay [2] (P.O. 0.3 mpk) was “B (Category B=SBP in SHRs 15-25 mmHg)”.

On to `Cn1ncc2c(-c3nc(N)c4c(n3)NC(=O)C4(c3nnc(C4CC4)o3)C3CC3)nc(CCC(F)(F)C(F)(F)F)nc21` (stereo not shown) [Example 44, 4-Amino-5-cyclopropyl-5-(5-cyclopropyl-1,3,4-oxadiazol-2-yl)-2-(1-methyl-6-(3,3,4,4,4-pentafluorobutyl)-1H-pyrazolo[3,4-d]pyrimidin-4-yl)-5,7-dihydro-6H-pyrrolo[2,3-d]pyrimidin-6-one], for which, in assay [1], the Emax was found to be 113% and the EC50 worked out at 225 nM. For the same compound, the “Category: maximum peak decrease” value in assay [2] (P.O. 1 mpk) is recorded as “B (Category B=SBP in SHRs 15-25 mmHg)”.

As to `[2H]C([2H])([2H])n1ncc2c(-c3nc(N)c4c(n3)NC(=O)C4(c3nnnn3C)C3CC3)nc(CCC(F)(F)C(F)(F)F)nc21` (stereo not shown) [Example 25, 4-Amino-5-cyclopropyl-5-(1-methyl-1H-tetrazol-5-yl)-2-(1-(methyl-d3)-6-(3,3,4,4,4-pentafluorobutyl)-1H-pyrazolo[3,4-d]pyrimidin-4-yl)-5,7-dihydro-6H-pyrrolo[2,3-d]pyrimidin-6-one], in assay [1], the Emax is 93% and the EC50 stood at 991 nM. Further, the “Category: maximum peak decrease” value in assay [2] (P.O. 3 mpk) is “C (Category C=SBP in SHRs >25 mmHg)”.

`[2H]C([2H])([2H])n1ncc2c(-c3nc(N)c4c(n3)NC(=O)C4(c3cn(C)nn3)C3CC3)nc(CCC(F)(F)C(F)(F)F)nc21` (single isomer, unassigned) [Example 54, 4-Amino-5-cyclopropyl-5-(1-methyl-1H-1,2,3-triazol-4-yl)-2-(1-(methyl-d3)-6-(3,3,4,4,4-pentafluorobutyl)-1H-pyrazolo[3,4-d]pyrimidin-4-yl)-5,7-dihydro-6H-pyrrolo[2,3-d]pyrimidin-6-one]: in assay [1], the Emax worked out at 93% and the EC50 is 229 nM. Besides, in assay [2] (P.O. 1 mpk), the “Category: maximum peak decrease” value was “B (Category B=SBP in SHRs 15-25 mmHg)”.

As to `Cn1ncc2c(-c3nc(N)c4c(n3)NC(=O)C4(C)c3ccc(F)cn3)nc(CC3CC(F)(F)C3)nc21` (stereo not shown) [Example 3, 4-Amino-2-(6-((3,3-difluorocyclobutyl)methyl)-1-methyl-1H-pyrazolo[3,4-d]pyrimidin-4-yl)-5-(5-fluoropyridin-2-yl)-5-methyl-5,7-dihydro-6H-pyrrolo[2,3-d]pyrimidin-6-one], in assay [1], the Emax is 117% and the EC50 is 104 nM. Besides, the “Category: maximum peak decrease” value in assay [2] (P.O. 0.3 mpk) was “C (Category C=SBP in SHRs >25 mmHg)”.

For the compound `Cn1cc(C2(C3CC3)C(=O)Nc3nc(-c4nc(CCC(F)(F)C(F)(F)F)nc5c4cnn5C)nc(N)c32)nn1` (single isomer, unassigned) [Example 55, 4-Amino-5-cyclopropyl-5-(1-methyl-1H-1,2,3-triazol-4-yl)-2-(1-methyl-6-(3,3,4,4,4-pentafluorobutyl)-1H-pyrazolo[3,4-d]pyrimidin-4-yl)-5,7-dihydro-6H-pyrrolo[2,3-d]pyrimidin-6-one], in assay [1], the Emax was 118% and the EC50 was 251 nM. Also, the “Category: maximum peak decrease” value in assay [2] (P.O. 1 mpk) is on record as “B (Category B=SBP in SHRs 15-25 mmHg)”.

For `CCn1cc(C2(CC)C(=O)Nc3nc(-c4nc(CCC(F)(F)C(F)(F)F)nc5c4cnn5C)nc(N)c32)nn1` (single isomer, unassigned) [Example 66, 4-Amino-5-ethyl-5-(1-ethyl-1H-1,2,3-triazol-4-yl)-2-(1-methyl-6-(3,3,4,4,4-pentafluorobutyl)-1H-pyrazolo[3,4-d]pyrimidin-4-yl)-5,7-dihydro-6H-pyrrolo[2,3-d]pyrimidin-6-one], in assay [1], the Emax amounted to 108% and the EC50 stood at 327 nM. In assay [2] (P.O. 1 mpk), the “Category: maximum peak decrease” value is listed as “B (Category B=SBP in SHRs 15-25 mmHg)”.

As for `[2H]C([2H])([2H])n1ncc2c(-c3nc(N)c4c(n3)NC(=O)C4(c3nnc(C)o3)C3CC3)nc(CCC(F)(F)C(F)(F)F)nc21` (stereo not shown) [Example 40, 4-Amino-5-cyclopropyl-5-(5-methyl-1,3,4-oxadiazol-2-yl)-2-(1-(methyl-d3)-6-(3,3,4,4,4-pentafluorobutyl)-1H-pyrazolo[3,4-d]pyrimidin-4-yl)-5,7-dihydro-6H-pyrrolo[2,3-d]pyrimidin-6-one], the “Category: maximum peak decrease” value in assay [2] (P.O. 1 mpk) was “C (Category C=SBP in SHRs >25 mmHg)”.

These data come from US9611278B2 (Merck Sharp & Dohme Corp., priority 2013, dated 2017).
